Experimental data: paper PMC6225478, “Natural Scaffolds with Multi-Target Activity for the Potential Treatment of Alzheimer’s Disease” (Molecules : A Journal of Synthetic Chemistry and Natural …, 2018)
Where “and” joins values, the source holds several entries; their conditions need not be identical. Equal entries are not always repeated. Where two headings read alike, the source gives them in different places.

Experiments:
AChE from electric eel = target: T1, AChE from electric eel (Electrophorus electricus, UniProt O42275); assay: biochemical
T1 construct: purchased Sigma-Aldrich, Milan, Italy
Experimental: (§1) A modified protocol of Ellman’s spectrophotometric assay [54] adapted to a 96-well plate procedure was followed as previously described [39]. Incubation samples of AChE from electric eel or BChE from equine serum (eeAChE, 463 U/mg, and esBChE, 13 U/mg, Sigma-Aldrich, Milan, Italy) were set in phosphate buffer (pH 8.0) containing 0.5 mM 5,5′-dithiobis(2-nitrobenzoic acid) (DTNB; Sigma-Aldrich, Milan, Italy) as the chromophoric reagent alone or in the presence of the inhibitor (10 μM). Incubations were carried out in clear flat-bottomed, 96-well plates (Greiner Bio-One GmbH, Frickenhausen, Germany) in duplicate. […] After incubation for 20 min at 25 °C, 0.5 mM acetyl- or butyrylthiocholine iodide (Sigma-Aldrich, Milan, Italy) were added as the substrates and AChE-catalyzed hydrolysis was followed by measuring the increase of absorbance at 412 nm for 5 min at 25 °C in a Tecan Infinite M1000 Pro multiplate reader (Tecan, Cernusco S.N., Italy). Inhibition values and IC50s were calculated with a GraphPad Prism as the mean of three independent experiments and are expressed as mean ± SEM.

[1] = Antioxidant activity (DPPH radical scavenging assay); conditions: DPPH 100 µM in methanol, 30 min
Experimental: The DPPH assay is routinely practiced for the assessment of the free radical scavenging potential of an antioxidant molecule.
The DPPH radical scavenging assay was performed in 96-well microplates according to the method reported by Blois with some modifications.
A freshly prepared solution of DPPH in methanol (100 µM final concentration) was added to test compounds methanolic solution. The mixtures were shaken vigorously and left to stand in the dark for 30 min at room temperature. Then absorbance was read at 520 nm using a spectrophotometric plate reader (Victor 3 Perkin-Elmer).
The antioxidant activity was determined as the RSA% (radical scavenging activity) and calculated using the following equation: RSA% = 100 × [(Ao − Ai)/Ao] where Ao and Ai are the DPPH absorbance in the absence or in the presence of antioxidants, respectively. Different sample concentrations were used in order to obtain anti-radical curves for calculating the EC50 values. Anti-radical curves were plotted referring to log concentration on the x-axis and their RSA% on the y-axis. The EC50 values and statistical analyses were processed using the GraphPad Prism 5 software (San Diego, CA, USA).
Values of all parameters are expressed as mean ± SEM of at least three independent measurements in triplicate.

Aβ1–40 = target: T2, Aβ1–40 (Homo sapiens, UniProt P05067); assay: Inhibition of Aβ1–40 aggregation (ThT fluorescence); format: biochemical; conditions: Aβ1–40 30 μM; for IC50: 2 h at 25 °C, ThT fluorescence; for iAβ %I (100μM): percentage of inhibition at 100 μM inhibitor
T2 construct: diluting Aβ1–40 (EZBiolab, Carmel, IN, USA); purchased EZBiolab, Carmel, IN, USA
Experimental: The spectrofluorimetric assays measured ThT fluorescence in the presence of Aβ and were done as previously described [39]. Co-incubation samples were prepared in 96-well black, non-binding microplates (Greiner Bio-One GmbH, Frickenhausen, Germany) by diluting Aβ1–40 (EZBiolab, Carmel, IN, USA) alone or in the presence of the inhibitor to a final concentration of 30 μM and 100 μM, respectively, in PBS (pH 7.4) containing 10% DMSO and 2% 1,1,1,3,3,3-hexafluoro-2-propanol (HFIP). After 2 h of incubation at 25 °C, 25 μM ThT solution in phosphate buffer (pH 6.0) was added and fluorescence was read in a multi-plate reader Infinite M1000 Pro (Tecan, Cernusco S.N., Italy). […] Assays were run in triplicate. Values are expressed as mean ± SEM.

AChE [2] = tested on: AChE; design: method as in earlier work; conditions: ref 40 (Ali et al.); read-out: AChEi (means ± SEMs of triplicate experiments); cited from earlier work
Aβ = tested on: Aβ; design: method as in PMID 21261647; conditions: read-out: Inhibitory activity of Aβ aggregation IC50; cited from earlier work
BChE = tested on: BChE; design: method as in PMID 28286309; conditions: at 100 μg/mL; cited from earlier work
BChE from equine serum = target: T3, BChE from equine serum (Equus caballus, UniProt P81908); assay: BChE inhibition, modified Ellman's spectrophotometric assay; format: biochemical; conditions: for esBChEi %I (10μM): percentage of inhibition at 10 μM inhibitor, equine serum BChE
T3 construct: purchased Sigma-Aldrich, Milan, Italy; host or cells: equine serum
Experimental: as §1

AChE [3] = tested on: AChE; design: method as in PMID 20692939; conditions: cited from earlier work
AChE [4] = tested on: AChE; design: method as in PMID 28286309; conditions: at 100 μg/mL; cited from earlier work
[5] = acetylcholinesterase from electric eel, mean ± SEM, read-out: eeAChEi IC50 (μM ± SEM)
[6] = butyrylcholinesterase from equine serum, mean ± SEM, i.a. = not active

T1 sequence (O42275 24-633): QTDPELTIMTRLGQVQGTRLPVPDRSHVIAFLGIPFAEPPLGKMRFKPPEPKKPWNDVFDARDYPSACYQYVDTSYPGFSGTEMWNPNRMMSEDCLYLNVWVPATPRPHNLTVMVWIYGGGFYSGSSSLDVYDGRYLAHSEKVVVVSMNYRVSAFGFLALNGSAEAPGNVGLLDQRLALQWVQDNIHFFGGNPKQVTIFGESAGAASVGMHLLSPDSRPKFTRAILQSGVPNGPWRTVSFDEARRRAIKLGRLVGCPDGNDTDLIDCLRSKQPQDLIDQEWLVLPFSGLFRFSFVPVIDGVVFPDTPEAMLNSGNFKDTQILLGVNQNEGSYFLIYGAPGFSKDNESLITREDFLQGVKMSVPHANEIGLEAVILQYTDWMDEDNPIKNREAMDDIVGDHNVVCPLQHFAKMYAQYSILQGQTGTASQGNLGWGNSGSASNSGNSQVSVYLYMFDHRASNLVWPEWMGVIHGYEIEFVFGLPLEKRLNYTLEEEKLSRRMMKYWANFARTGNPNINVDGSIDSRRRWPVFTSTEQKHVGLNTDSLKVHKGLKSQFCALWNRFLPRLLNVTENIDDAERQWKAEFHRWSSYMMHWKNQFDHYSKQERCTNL
T2 sequence (P05067 672-711): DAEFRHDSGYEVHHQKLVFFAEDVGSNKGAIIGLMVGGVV
T3 sequence (P81908 whole entry): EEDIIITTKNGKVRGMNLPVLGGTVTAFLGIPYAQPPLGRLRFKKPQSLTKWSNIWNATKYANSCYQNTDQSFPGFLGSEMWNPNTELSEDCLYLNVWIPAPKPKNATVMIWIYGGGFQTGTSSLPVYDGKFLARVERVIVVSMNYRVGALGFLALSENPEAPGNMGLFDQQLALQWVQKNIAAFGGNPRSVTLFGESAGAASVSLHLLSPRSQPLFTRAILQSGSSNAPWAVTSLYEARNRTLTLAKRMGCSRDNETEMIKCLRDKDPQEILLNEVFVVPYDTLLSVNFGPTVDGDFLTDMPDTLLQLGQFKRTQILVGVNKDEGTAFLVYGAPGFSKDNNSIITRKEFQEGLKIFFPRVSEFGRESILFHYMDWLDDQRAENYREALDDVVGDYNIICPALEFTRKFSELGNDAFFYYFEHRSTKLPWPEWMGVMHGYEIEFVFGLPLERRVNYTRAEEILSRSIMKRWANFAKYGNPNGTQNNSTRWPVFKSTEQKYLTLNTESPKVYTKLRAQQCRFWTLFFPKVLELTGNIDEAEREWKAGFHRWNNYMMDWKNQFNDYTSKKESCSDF

## CC[C@H](C)[C@@H]1NC(=O)C(C(C)=O)=C1O [Compound 1, Tenuazonic acid]
AChE from electric eel
  IC50: 8.13 ± 0.08 µM
[1]
  Antioxidant Activity EC50 (μmol/µmol of DPPH ± SEM): 2.6 μmol/µmol of DPPH and 2.6 ± 0.2 μmol/µmol of DPPH
Aβ1–40; iAβ IC50 (μM ± SEM)
  IC50: ~100 µM
Aβ1–40
  iAβ %I (100μM): %I (100μM): 50 ± 8

## O=Cc1c(O)ccc2ccc(=O)oc12 [8-formyl-umbelliferon]
AChE [2]
  IC50: 19.1 ± 0.57 µM

## Oc1ccc(/C=C/c2cc(O)cc3c2[C@H](c2cc(O)cc(O)c2)[C@@H](c2ccc(O)c(O)c2)O3)cc1 [scirpusin A]
Aβ
  IC50: 0.7 ± 0.3 µM

## COc1ccc2c3c1O[C@H]1C[C@@H](O)C=C[C@@]31CCN(C)C2 [Galantamine]
BChE
  Percentage of inhibition against BChE: 81.93 ± 2.52%

## O=C(O)c1cc(O)c(O)c(O)c1 [Gallic acid, reference compound]
[1]
  Antioxidant Activity EC50 (μmol/µmol of DPPH ± SEM): 0.054 ± 0.004 μmol/µmol of DPPH

## C/C=C/c1cc2c(c(=O)o1)[C@@H](O)[C@@H](O)[C@H](C)O2 [Compound 2, 2-epi-Radicinol]
AChE from electric eel; [5]
  IC50: 6.86 ± 0.67 µM
BChE from equine serum; [6]
  esBChEi IC50 (μM ± SEM): i.a.
[1]
  Antioxidant Activity EC50 (μmol/µmol of DPPH ± SEM): > 100 μmol/µmol of DPPH
Aβ1–40; read-out: iAβ IC50 (μM ± SEM)
  IC50: 74 ± 1 µM

## Oc1c(I)cc(Cl)c2cccnc12 [Clioquinol, reference compound]
AChE from electric eel; [5]
  IC50: 8.12 ± 1 µM
BChE from equine serum
  esBChEi %I (10μM): %I (10μM): 10 ± 1%
[1]
  Antioxidant Activity EC50 (μmol/µmol of DPPH ± SEM): 0.74 ± 0.04 μmol/µmol of DPPH
Aβ1–40; read-out: iAβ IC50 (μM ± SEM)
  IC50: 7.6 ± 0.8 µM

## COc1c(C)c2c(c(O)c1C/C=C(\C)CCC(=O)O)C(=O)OC2 [Compound 3, Mycophenolic acid]
AChE from electric eel; [5]
  IC50: 7.84 ± 0.72 µM
BChE from equine serum; [6]
  esBChEi IC50 (μM ± SEM): i.a.
[1]
  Antioxidant Activity EC50 (μmol/µmol of DPPH ± SEM): 14.7 μmol/µmol of DPPH and 14.7 ± 3.4 μmol/µmol of DPPH
Aβ1–40
  iAβ %I (100μM): %I (100μM): 38 ± 3

## O=c1c(O)c(-c2ccc(O)c(O)c2)oc2cc(O)cc(O)c12 [Quercetin, reference compound]
Aβ1–40; read-out: iAβ IC50 (μM ± SEM)
  IC50: 0.82 ± 0.07 µM

## O=Cc1cc2ccc(=O)oc2cc1O [6-formyl-umbelliferone]
AChE [2]
  IC50: 16.7 ± 1.62 µM

## COC(=O)/C=C/c1ncn(C)c1CC=C(C)C [Compound 6, Fungerin]
AChE from electric eel; [5]
  IC50: 86 ± 15 µM
BChE from equine serum; butyrylcholinesterase from equine serum, mean ± SEM, i.a. = not active, read-out: esBChEi IC50 (μM ± SEM)
  IC50: 1.75 ± 0.59 µM
BChE from equine serum; esBChE vs eeAChE IC50
  Potency on BChE compared to that on AChE: about 50 times
[1]
  Antioxidant Activity EC50 (μmol/µmol of DPPH ± SEM): >100 μmol/µmol of DPPH
Aβ1–40
  iAβ %I (100μM): %I (100μM): 33 ± 9
AChE [3]
  Activity as an AChE inhibitor: medium-high micromolar range

## COc1cc(O)c2c(c1)C[C@@H](C)OC2=O [Compound 4, 6-Methoxymellein]
AChE from electric eel; [5]
  IC50: 11.4 ± 0.8 µM
BChE from equine serum
  esBChEi %I (10μM): %I (10μM): 10 ± 3%
[1]
  Antioxidant Activity EC50 (μmol/µmol of DPPH ± SEM): > 100 μmol/µmol of DPPH
Aβ1–40; read-out: iAβ IC50 (μM ± SEM)
  IC50: 98 ± 3 µM

## pteryxin
AChE [4]
  Percentage of inhibition against AChE: 9.30 ± 1.86%
BChE
  Percentage of inhibition against BChE: 91.62 ± 1.53%

## ε-viniferin glucoside
Aβ
  IC50: 0.2 ± 0.3 µM

## C/C=C/c1cc2c(c(=O)o1)C(=O)[C@@H](O)[C@H](C)O2 [Compound 5, Radicinin]
AChE from electric eel; [5]
  IC50: 8.96 ± 0.97 µM
BChE from equine serum
  esBChEi %I (10μM): %I (10μM): 6 ± 1%
[1]
  Antioxidant Activity EC50 (μmol/µmol of DPPH ± SEM): >100 μmol/µmol of DPPH
Aβ1–40
  iAβ %I (100μM): %I (100μM): 44 ± 3
